# Results published in patent EP4813990A1, “COMPOUND FOR TREATING CANCER” (INNOLAKE BIOPHARMA (HANGZHOU) CO., LTD., priority 2023, dated 2025).
# Columns and labels:
# [1] = SD rat absorption test (pharmacokinetics); assay type: in vivo, SD rats; conditions: for bioavailability / AUC(0-t) / half-life / clearance / Vd / Cmax: Sprague-Dawley, rat, plasma; for bioavailability: oral 12 mg/kg; for half-life: read-out: elimination half-life (T1/2) (converted); for clearance: read-out: plasma clearance rate (CL); for Vd: read-out: steady-state apparent volume of distribution (Vdss); for Cmax: read-out: peak concentrations (Cmax); for ratio of AUC0-last on Day 7 to Day 1 / ratio of Cmax on Day 7 to Day 1: continuous oral 40 mg/kg for 7 days
# Description: (§1) According to the Technical Guidelines for Non-clinical Pharmacokinetic Studies of Drugs and the results of in vitro metabolic species difference studies, liquid chromatography-tandem mass spectrometry (LC-MS/MS) was used in this pharmacokinetic study to fully verify the analytical method for the determination of ILB-2109 content in plasma (EDTA-K2 anticoagulation) of Sprague-Dawley rats and cynomolgus monkeys. The linear range of the method was 20.0~20000 nM. The precision, accuracy and other indicators of the method were confirmed to comply with the relevant regulations of biological sample detection.
# This experiment studied the pharmacokinetic properties of ILB-2109 in female and male SD rats, including 1) 2 mg/kg single intravenous injection administration study; 2) 12, 40 and 120 mg/kg oral dose escalation study; 3) 40 mg/kg repeated oral administration BID for 7 consecutive days.
# Caco-2 cells = experiment: Caco-2 permeability; assay type: in vitro ADME
# [2] = Cynomolgus monkey absorption test (pharmacokinetics); assay type: in vivo, cynomolgus monkeys; conditions: for Cmax: read-out: peak concentration (Cmax)
# Description: as §1
# This experiment studied the pharmacokinetic properties of ILB-2109 in female and male cynomolgus monkeys, including 1) 3 mg/kg single intravenous injection administration study; 2) 3, 15 and 60 mg/kg oral dose escalation study; 3) 15 mg/kg oral administration BID for 7 consecutive days.
# [3] = system: histidine-deficient Salmonella typhimurium strains (TA97a, TA98, TA100, TA102 and TA1535); experiment: AMES reverse mutation test; assay type: cell-based; conditions: 128 ~ 5000 µg/plate, with or without S9 metabolic activation system
# Description: This test detected the ability of ILB-2109 to induce reverse mutation of histidine-deficient Salmonella typhimurium strains (TA97a, TA98, TA100, TA102 and TA1535) with and without exogenous metabolic activation system. […] Therefore, under the research conditions, the Ames test result was negative.
# [4] = 4-week repeated-dose toxicity test in rats; design: species or system SD rats; conditions: Sprague-Dawley, rat, in vivo
# Description: In accordance with the relevant requirements of the Good Laboratory Practice for Non-clinical Drug Studies issued by the National Medical Products Administration of the People's Republic of China, and following the test protocol and revisions, the safety pharmacology test, single-dose toxicity, genetic toxicity, etc. of ILB-2109 were explored.
# SD rats were given continuous intragastric administration of ILB-2109 at doses of 0 (vehicle), 60, 200 and 600 mg/kg for 28 consecutive days. […] WBC and #LYMPH increased or tended to increase in medium and high-dose groups; GLU decreased or tended to decrease in medium and high-dose groups; CREA and UREA increased or tended to increase in female high-dose group; GLOB increased and A/G decreased in female animals of each dose group. […] All the above changes completely recovered during the recovery period. […] ILB-2109 may have toxic effects on digestive system (liver function), blood system (granulocyte series) and urinary system (renal function) of SD rats, which can be reversed at the end of the recovery period.
# A2b receptor = A2b receptor (Homo sapiens, UniProt P29275); experiment: Adenosine receptor selectivity, A2aR compared with A2b; assay type: binding
# Description: Meanwhile, ILB-2109 had high selectivity for A2aR (compared with A1, A2b and A3 receptors, the selectivity was 18.9 times, 40.7 times and 3424.7 times respectively).
# Plasma protein binding [5] = assay type: in vitro ADME; conditions: one range given for CD-1 mice, Sprague-Dawley rats, Beagle dogs and cynomolgus monkeys
# [6] = Liver microsome metabolism; assay type: in vitro ADME
# Description: The main biotransformation pathways of ILB-2109 in in vitro liver microsomes and hepatocytes include oxidation, dehydrogenation and glucuronidation (hepatocyte biotransformation pathway), and no human-specific metabolites were detected.
# Plasma protein binding [7] = assay type: in vitro ADME; conditions: one range given for CD-1 mice, Sprague-Dawley rats, Beagle dogs and cynomolgus monkeys; remark: listed apart in the source
# Plasma protein binding [8] = assay type: in vitro ADME; conditions: one range given for CD-1 mice, Sprague-Dawley rats, Beagle dogs and cynomolgus monkeys; remark: listed apart in the source
# [9] = female SD rats, single intravenous injection 2 mg/kg
# [10] = female SD rats, single oral 12 mg/kg
# [11] = female SD rats, single oral 40 mg/kg
# [12] = female SD rats, single oral 120 mg/kg
# [13] = male SD rats, single intravenous injection 2 mg/kg
# [14] = male SD rats, single oral 12 mg/kg
# [15] = male SD rats, single oral 40 mg/kg
# [16] = male SD rats, single oral 120 mg/kg
# [17] = both sexes, cynomolgus monkey, plasma, po, 3 mg/kg, cynomolgus monkeys, single oral 3 mg/kg
# [18] = both sexes, cynomolgus monkey, plasma, po, 15 mg/kg, cynomolgus monkeys, oral 15 mg/kg twice a day for 7 days, Day 1
# [19] = both sexes, cynomolgus monkey, plasma, po, 15 mg/kg, cynomolgus monkeys, oral 15 mg/kg twice a day for 7 days, Day 7
# [20] = both sexes, cynomolgus monkey, plasma, po, 15 mg/kg, cynomolgus monkeys, single oral 15 mg/kg
# [21] = both sexes, cynomolgus monkey, plasma, po, 60 mg/kg, cynomolgus monkeys, single oral 60 mg/kg
# Sequence of A2b receptor (P29275 whole entry): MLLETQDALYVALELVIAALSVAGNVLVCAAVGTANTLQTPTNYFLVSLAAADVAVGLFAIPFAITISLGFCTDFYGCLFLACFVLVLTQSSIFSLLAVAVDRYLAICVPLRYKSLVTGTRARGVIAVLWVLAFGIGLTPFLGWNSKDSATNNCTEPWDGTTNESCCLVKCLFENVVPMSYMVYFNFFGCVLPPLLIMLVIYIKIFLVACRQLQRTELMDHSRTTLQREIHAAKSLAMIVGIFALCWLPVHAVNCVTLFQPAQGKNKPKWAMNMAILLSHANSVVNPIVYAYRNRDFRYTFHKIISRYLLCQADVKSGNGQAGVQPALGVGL
compound,measurement,setting,value
Cc1cc(-c2c(-c3ccccc3)nc(N)n3nc(CO)nc23)cc(C(F)(F)F)n1 [ILB-2109],tolerability in the PK study,"[1]; SD rats, all dose regimens of the absorption test",tolerated the compound well without any abnormal manifestations
same,bioavailability,[1]; female SD rats,67.8%
same,AUC(0-t),[1]; [9],60.3 ± 5.18 µM·h
same,half-life,[1]; [9],5.71 ± 1.25 h
same,clearance,[1]; [9],1.33 ± 0.135 mL/min/kg
same,Vd,[1]; [9],0.526 ± 0.0558 L/kg
same,AUC(0-t),[1]; [10],247 ± 22.1 µM·h
same,Cmax,[1]; [10],33.7 ± 2.8 µM
same,AUC(0-t),[1]; [11],915 ± 169 µM·h
same,Cmax,[1]; [11],124 ± 17.5 µM
same,AUC(0-t),[1]; [12],1560 ± 205 µM·h
same,Cmax,[1]; [12],155 ± 24.3 µM
same,bioavailability,[1]; male SD rats,73%
same,AUC(0-t),[1]; [13],13.3 ± 2.26 µM·h
same,half-life,[1]; [13],1.26 ± 0.361 h
same,clearance,[1]; [13],6.3 ± 1.04 mL/min/kg
same,Vd,[1]; [13],0.681 ± 0.0975 L/kg
same,AUC(0-t),[1]; [14],58.9 ± 19.2 µM·h
same,Cmax,[1]; [14],23.8 ± 2.23 µM
same,AUC(0-t),[1]; [15],296 ± 54.1 µM·h
same,Cmax,[1]; [15],63.3 ± 1.65 µM
same,AUC(0-t),[1]; [16],792 ± 167 µM·h
same,Cmax,[1]; [16],118 ± 19.8 µM
same,peak time,[1]; [10],2.33 ± 1.53 h
same,peak time,[1]; [11],3.33 ± 1.15 h
same,peak time,[1]; [12],2.67 ± 1.15 h
same,dose proportionality of systemic exposure (AUC0-last) and Cmax,"[1]; female and male rats, oral dose range 12 to 40 mg/kg",increased basically proportionally to the dose
same,ratio of AUC0-last on Day 7 to Day 1,[1]; female rats,0.669
same,ratio of Cmax on Day 7 to Day 1,[1]; female rats,0.899
same,peak time,[1]; [14],0.667 ± 0.289 h
same,peak time,[1]; [15],1.33 ± 0.577 h
same,peak time,[1]; [16],2.67 ± 1.15 h
same,ratio of AUC0-last on Day 7 to Day 1,[1]; male rats,0.584
same,ratio of Cmax on Day 7 to Day 1,[1]; male rats,0.673
same,ratio of AUC0-last between female and male rats,[1]; oral single dose 12 mg/kg,4.19
same,ratio of AUC0-last between female and male rats,[1]; oral single dose 40 mg/kg,3.09
same,ratio of AUC0-last between female and male rats,[1]; oral single dose 120 mg/kg,1.97
same,efflux transporter substrate,Caco-2 cells; Caco-2 cells,most likely a substrate of efflux transporters
same,permeability in Caco-2 cells,Caco-2 cells; according to existing classification standards,high permeability
same,AUC(0-t),"[2]; both sexes, cynomolgus monkey, plasma, iv, 3 mg/kg, female and male cynomolgus monkeys, single intravenous injection 3 mg/kg",39.5 ± 5.27 µM·h
same,AUC(0-t),[2]; [17],35.2 ± 6.87 µM·h
same,Cmax,[2]; [17],8.19 ± 1.81 µM
same,AUC(0-t),[2]; [18],172 ± 34.4 µM·h
same,Cmax,[2]; [18],18.2 ± 4 µM
same,AUC(0-t),[2]; [19],268 ± 42.5 µM·h
same,Cmax,[2]; [19],28.3 ± 4.78 µM
same,AUC(0-t),[2]; [20],192 ± 51.6 µM·h
same,Cmax,[2]; [20],33.9 ± 9.66 µM
same,AUC(0-t),[2]; [21],571 ± 254 µM·h
same,Cmax,[2]; [21],59.3 ± 33.3 µM
same,bioavailability,"[2]; both sexes, cynomolgus monkey, plasma, cynomolgus monkeys, 3 mg/kg oral dose group",89.1%
same,half-life,"[2]; both sexes, cynomolgus monkey, plasma, female and male cynomolgus monkeys, single intravenous injection 3 mg/kg, read-out: elimination half-life (T1/2) (converted)",4.33 ± 0.75 h
same,clearance,"[2]; both sexes, cynomolgus monkey, plasma, female and male cynomolgus monkeys, single intravenous injection 3 mg/kg, read-out: plasma clearance rate (CL)",3.13 ± 0.361 mL/min/kg
same,Vd,"[2]; both sexes, cynomolgus monkey, plasma, female and male cynomolgus monkeys, single intravenous injection 3 mg/kg, read-out: steady-state apparent volume of distribution (Vd)",0.867 ± 0.141 L/kg
same,gender difference in systemic exposure (AUC0-last and Cmax),"[2]; cynomolgus monkeys, each oral dose",no significant gender difference
same,accumulation of systemic exposure,"[2]; cynomolgus monkeys, oral 15 mg/kg twice a day for 7 consecutive days",no obvious accumulation of systemic exposure
same,peak time,"[2]; cynomolgus monkeys, oral 15 mg/kg twice a day for 7 days",3.00 ± 1.10 h
same,dose proportionality of systemic exposure (AUC0-last),"[2]; cynomolgus monkeys, oral dose 3 to 60 mg/kg",increased basically proportionally to the dose
same,peak time,"[2]; cynomolgus monkeys, single oral 3 mg/kg",1.33 ± 0.516 h
same,peak time,"[2]; cynomolgus monkeys, single oral 15 mg/kg",2.00 ± 1.10 h
same,peak time,"[2]; cynomolgus monkeys, single oral 60 mg/kg",4.00 ± 2.19 h
same,Ames test result,[3],negative
same,AUC(0-t),"[4]; oral, female SD rats, 600 mg/kg (MTD), 4-week study, read-out: AUC0-24h",725 µg·h/mL
same,Cmax,"[4]; oral, female SD rats, 600 mg/kg (MTD), 4-week study, read-out: Cmax",69400 ng/mL
same,AUC(0-t),"[4]; oral, male SD rats, 600 mg/kg (MTD), 4-week study, read-out: AUC0-24h",481 µg·h/mL
same,Cmax,"[4]; oral, male SD rats, 600 mg/kg (MTD), 4-week study, read-out: Cmax",36300 ng/mL
same,NOAEL at 28 days,"[4]; both sexes, po",60 mg/kg
same,MTD at 28 days,"[4]; both sexes, po, SD rats, intragastric, 28 consecutive days",600 mg/kg
same,AUC(0-t),"[4]; female, 60 mg/kg",296 µg·h/mL
same,Cmax,"[4]; female, 60 mg/kg",22200 ng/mL
same,AUC(0-t),"[4]; male, 60 mg/kg",114 µg·h/mL
same,Cmax,"[4]; male, 60 mg/kg",15900 ng/mL
same,selectivity for A2aR compared with A2b receptor,A2b receptor,40.7 times
same,binding rate in plasma,Plasma protein binding [5],87.3%-95.0%
same,metabolism rate,[6]; Beagle dogs liver microsomes,slowly metabolized or non-metabolized
same,metabolism rate,[6]; CD-1 mice liver microsomes,moderate rate
same,metabolism rate,[6]; SD rats liver microsomes,moderate rate
same,metabolism rate,[6]; cynomolgus monkeys liver microsomes,slowly metabolized or non-metabolized
same,metabolism rate,[6]; human liver microsomes,slowly metabolized or non-metabolized
same,binding rate in plasma,Plasma protein binding [7],87.3%-95.0%
same,binding rate in plasma,Plasma protein binding [8],87.3%-95.0%
